These results are taken from ChEMBL document CHEMBL1125004, “Chemistry and pharmacology of the non-benzodiazepine anxiolytic enciprazine and related compounds” (1990).

Activity calls are given as the source filed them. The calls are words filed in the database; no cut-off is given here.

Experiment [1] in a line: Ratio of ED50 (rotarod) to that of ED50 (fighting). The format is functional. (In the rotarod test animals must keep their balance on a rotating rod.)
For experiment [2], the species on record is Mus musculus. Description: Ataxic activity in mice by rotarod test; Range (87.7-114.6). Format: functional.
For experiment [3], the species on record is Mus musculus. Description: Effect on hexobarbital induced sleep was determined in hexobarbital potentiation test; Range (181.4-219.9). Format: functional.
Experiment [4] has as its system Mus musculus. The experiment in a line: Antiaggressive anxiolytic activity in the electroshock-induced fighting test in mice (po); Range (1.46-5.72). The format is functional.
Experiment [5] relates to Rattus norvegicus. The experiment in a line: Antiaggressive anxiolytic activity in the hexagonal maze test in rat after po administration of 2.6 mg/kg. Format: functional.
Experiment [6] can be described thus: Ratio of ED50 (hexobarbital) to that of ED50 (fighting). The format is functional.
The test system of experiment [7] is Mus musculus. The experiment in a line: Antiaggressive anxiolytic activity in the electroshock-induced fighting test in mice (po); Range (8.3-16.1). The format is functional.
Experiment [8] concerns Mus musculus. The experiment in a line: Antiaggressive anxiolytic activity in the electroshock-induced fighting test in mice (po); Range (13.27-18.96). The format is functional.
The test system of experiment [9] is Mus musculus. The experiment in a line: Antiaggressive anxiolytic activity in the electroshock-induced fighting test in mice (po); Range (1.19-5.72). The format is functional.
In experiment [10] the test system is Mus musculus. Description: Antiaggressive anxiolytic activity in the electroshock-induced fighting test in mice (po); Range (11.7-20.3). Format: functional.
The species entered for experiment [11] is Mus musculus. The experiment in a line: Ataxic activity in mice by rotarod test; Range (231.4-298.5). Format: functional.
Experiment [12] deals with Mus musculus. Description: Antiaggressive anxiolytic activity in the electroshock-induced fighting test in mice (po); Range (0.69-2.88). Format: functional.
For experiment [13], the species on record is Mus musculus. The experiment in a line: Effect on hexobarbital induced sleep was determined in hexobarbital potentiation test; Range (1 19.4-168.3). Format: functional.
Experiment [14] has as its system Mus musculus. The experiment in a line: Antiaggressive anxiolytic activity in the electroshock-induced fighting test in mice (po); Range (1 7.3-25.4). The format is functional.
For experiment [15], the system named is Mus musculus. Description: Antiaggressive anxiolytic activity in the electroshock-induced fighting test in mice (po); Range (9.4-17.88). Format: functional.
The subject of experiment [16] is Mus musculus. Description: Antiaggressive anxiolytic activity in the electroshock-induced fighting test in mice (po); Range (3.1-7.7). Format: functional.
The species named for experiment [17] is Mus musculus. Description: Ataxic activity in mice by rotarod test; Range (355.1-460.2). Format: functional.
The subject of experiment [18] is Mus musculus. The experiment in a line: Effect on hexobarbital induced sleep was determined in hexobarbital potentiation test (po); Range (76.3-106.2). The format is functional.
Experiment [19] has as its system Mus musculus. Description: Antiaggressive anxiolytic activity in the electroshock-induced fighting test in mice (po); Range (7.3-11.9). Format: functional.
The test system of experiment [20] is Rattus norvegicus. Description: Effect on salivation after oral administration of 10 mg/kg in rat was determined; '-' No effect. Format: functional, organism-based. Details: dose 10 mg/kg.
For experiment [21], the system named is Rattus norvegicus. The experiment in a line: Effect on jumping after oral administration of 10 mg/kg in rat was determined; '-' No effect. More on the design: dose 10 mg/kg. Format: functional, organism-based.
Experiment [22] deals with Rattus norvegicus. Description: Effect on diarrhea after oral administration of 20 mg/kg in rat was determined; '++' strong effect. Details: dose 20 mg/kg. Format: functional, organism-based.
For experiment [23], the system named is Rattus norvegicus. The experiment in a line: Effect on tremor after oral administration of 20 mg/kg in rat was determined; +' weak effect. More on the design: dose 20 mg/kg. Format: functional, organism-based.
Experiment [24] concerns Rattus norvegicus. The experiment in a line: Effect on jumping after oral administration of 20 mg/kg in rat was determined; +' weak effect. Format: functional, organism-based. More on the design: dose 20 mg/kg.
In experiment [25] the test system is Rattus norvegicus. Description: Effect on restlessness after oral administration of 20 mg/kg in rat was determined; +' weak effect. The format is functional, organism-based. More on the design: dose 20 mg/kg.
Experiment [26] is filed under the species Mus musculus. Description: animal or person.
Description: Ataxic activity in mice by rotarod test; Range (2.99-5.35)
A short description of experiment [27]: Ratio of ED50 (ethanol) to that of ED50 (fighting). The format is functional.
The species entered for experiment [28] is Mus musculus. Description: animal or person. Conditions: po.
Experiment [29] deals with Rattus norvegicus. Description: Effect on diarrhea after oral administration of 10 mg/kg in rat was determined; '+' weak effect. The format is functional, organism-based. Details: dose 10 mg/kg.
Experiment [30] deals with Rattus norvegicus. The experiment in a line: Effect on piloerection after oral administration of 20 mg/kg in rat was determined; '++' strong effect. Format: functional, organism-based. More on the design: dose 20 mg/kg.
Experiment [31] has as its system Rattus norvegicus. The experiment in a line: Effect on piloerection after oral administration of 10 mg/kg in rat was determined; '+' weak effect. Details: dose 10 mg/kg. Format: functional, organism-based.
The species entered for experiment [32] is Mus musculus. Description: animal or person. The source holds these as a separate data set.
Description: Effect on alcohol induced sleep was determined in ethanol potentiation test; Range (0.41-1.79)
Experiment [33] relates to Rattus norvegicus. The experiment in a line: Effect on restlessness after oral administration of 10 mg/kg in rat was determined; '+' weak effect. Format: functional, organism-based. Details: dose 10 mg/kg.
Experiment [34] has as its system Rattus norvegicus. The experiment in a line: Effect on salivation after oral administration of 20 mg/kg in rat was determined; +' weak effect. Format: functional, organism-based. More on the design: dose 20 mg/kg.
Experiment [35] has as its system Rattus norvegicus. The experiment in a line: Effect on tremor after oral administration of 10 mg/kg in rat was determined; '-' No effect. Format: functional, organism-based. Details: dose 10 mg/kg.
Experiment [36] is filed under the species Mus musculus. The experiment in a line: animal or person. The source holds these as a separate data set.
Experiment [37] deals with Monkey. The experiment in a line: Tested for ability to maintain self-administration after administration of 0.3 mg/kg in monkey 3038 (53.9+/-9.3). Format: functional, Cercopithecidae.
The test system of experiment [38] is Monkey. The experiment in a line: Tested for ability to maintain self-administration after administration of 0.1 mg/kg in monkey 9083 (59.8+/-15.8). Format: functional, Cercopithecidae.
Experiment [39] relates to Monkey. Description: Tested for ability to maintain self-administration after administration of 0.3 mg/kg in monkey 2037 (60.1+/-5.3). Format: functional, Cercopithecidae.
Experiment [40] concerns Monkey. The experiment in a line: Tested for ability to maintain self-administration after administration of 0.3 mg/kg in monkey 3017 (76.6+/-15.9). The format is functional, Cercopithecidae.
In experiment [41] the test system is Monkey. The experiment in a line: Tested for ability to maintain self-administration after administration of 0.3 mg/kg in monkey 2036 (44.9 +/-5.6). The format is functional, Cercopithecidae.
Experiment [42] has as its system Monkey. The experiment in a line: Tested for ability to maintain self-administration after administration of 0.3 mg/kg in monkey 9079 (56.5+/-18.0). The format is functional, Cercopithecidae.
The test system of experiment [43] is Mus musculus. The experiment in a line: Antiaggressive anxiolytic activity in the electroshock-induced fighting test in mice (po); Range (6.62-10.07). The format is functional.
The species named for experiment [44] is Mus musculus. Description: Effect on hexobarbital induced sleep was determined in hexobarbital potentiation test; Range (8.3-15.4). The format is functional.
The species named for experiment [45] is Mus musculus. Description: Ataxic activity in mice by rotarod test; Range (1.1-5.3). The format is functional.

In the case of `COc1cc(OCC(O)CN2CCN(c3ccccc3NC(C)=O)CC2)cc(OC)c1OC` (stereo not drawn), the figures for the Therapeutic index in experiment [1] and in experiment [6] were 30 and 61, respectively. In addition, the 50% effective dose (ED50) – broadly, the dose at which the effect has come halfway, by size or by number of responders – in the experiment filed under Mus musculus [2] amounted to 100 mg/kg; in the experiment filed under Mus musculus [3], 200 mg/kg; in the experiment with Mus musculus [4], 3.3 mg/kg. This molecule displayed a Prolongation in the experiment with Rattus norvegicus [5] of 50%.

Consider `COc1cc(OCC(O)CN2CCN(c3cccc(C)c3)CC2)cc(OC)c1OC.Cl` (stereo not drawn), for which, in the experiment with Mus musculus [7], the ED50 came to 12 mg/kg.

The molecule `COc1ccccc1N1CCN(CC(COc2cc(OC)c(OC)c(OC)c2)OC(=O)c2cc(OC)c(OC)c(OC)c2)CC1.Cl` (stereo not drawn) came in with an ED50 in the experiment with Mus musculus [8] of 16 mg/kg.

For the molecule `COc1cc(OCC(O)CN2CCN(c3ccccc3OC(C)=O)CC2)cc(OC)c1OC.Cl` (stereo not drawn), in the experiment on Mus musculus [9], the ED50 worked out at 3.3 mg/kg.

Take `COc1cc(OCC(O)CN2CCN(c3ccccc3Cl)CC2)cc(OC)c1OC.Cl` (stereo not drawn): in the experiment on Mus musculus [10], the 50% effect level (ED50) was put at a dose of 16 mg/kg.

In the case of `COc1cc(OCC(O)CN2CCN(c3ccccc3N)CC2)cc(OC)c1OC.Cl` (stereo not drawn), the ED50 in the experiment filed under Mus musculus [11] was 260 mg/kg; with Mus musculus [12] it was 1.4 mg/kg; in the experiment listed under Mus musculus [13], 145 mg/kg. Moreover, the Therapeutic index in [1] turned out to be 185; in [6] it was 103.

Consider `COc1cc(OCC(O)CN2CCN(c3ccccc3C(F)(F)F)CC2)cc(OC)c1OC.Cl` (stereo not drawn), for which, in the experiment with Mus musculus [14], the 50% effect level (ED50) was put at a dose of 21 mg/kg.

In the experiment with Mus musculus [15], `COc1ccccc1N1CCN(CC(COc2cc(OC)c(OC)c(OC)c2)OC(=O)c2cccnc2)CC1.Cl` (stereo not drawn) yielded an ED50 of 14 mg/kg.

`COc1cccc(N2CCN(CC(O)COc3cc(OC)c(OC)c(OC)c3)CC2)c1.Cl` (stereo not drawn) returned a median effective dose (ED50) with Mus musculus [16] of 5.5 mg/kg.

Consider `COc1cc(OCC(O)CN2CCN(c3cccc(C(F)(F)F)c3)CC2)cc(OC)c1OC.Cl` (stereo not drawn), for which the Therapeutic index was determined as 44 in experiment [1] and 10 in experiment [6]. Also, the ED50 in the experiment listed under Mus musculus [17] is 400 mg/kg; with Mus musculus [18] it was 90 mg/kg; in the experiment on Mus musculus [19] it was 9 mg/kg.

On to `CN1C(=O)CN=C(c2ccccc2)c2cc(Cl)ccc21` [DIAZEPAM], for which the Effect result with Rattus norvegicus [20], in the experiment with Rattus norvegicus [21] and in the experiment with Rattus norvegicus [35] was “inactive” in each case. For the same molecule, the Therapeutic index worked out at 2.9 in [1], 0.6 in experiment [27] and 2.1 in [6]. Besides, the Effect entry in the experiment with Rattus norvegicus [22] and with Rattus norvegicus [30] was “Active” in each case. Further, the Effect entry with Rattus norvegicus [23], in the experiment with Rattus norvegicus [24], in the experiment with Rattus norvegicus [25], with Rattus norvegicus [29], in the experiment with Rattus norvegicus [31] and in the experiment on Rattus norvegicus [33] was “Partially active” in each case. Moreover, the Effect entry with Rattus norvegicus [34] is “Partially active”. Further, the ED50 was 4 mg/kg in the experiment listed under Mus musculus [26], 1.4 mg/kg in the experiment listed under Mus musculus [28], 0.85 mg/kg in the experiment filed under Mus musculus [32] and 3 mg/kg in the experiment listed under Mus musculus [36].

Consider `CCCC(C)C1(CC)C(=O)NC(=O)NC1=O` (stereo not drawn) [PENTOBARBITAL], for which the Effect amounted to 53.9 with Monkey [37]; 59.8 in the experiment with Monkey [38]; 60.1 with Monkey [39]; 76.6 in the experiment with Monkey [40]; 44.9 with Monkey [41]; 56.5 in the experiment with Monkey [42].

Regarding `O=C1CN=C(c2ccccc2)c2cc(Cl)ccc2N1CC1CC1` [PRAZEPAM], the figures for the Therapeutic index in [1] and in experiment [6] were 0.4 and 1.4, respectively. The values for the ED50 in the experiment with Mus musculus [43], in the experiment listed under Mus musculus [44] and in the experiment filed under Mus musculus [45] were 8 mg/kg, 11.5 mg/kg and 3.1 mg/kg, respectively.
